Data from patent publication US6541463B1, “Inhibitors of type 5 and type 3 17β-hydroxysteroid dehydrogenase and methods for their use” (Endorecherche, Inc., priority 1998, dated 2003).

Experiments:
[1] = In vivo assay of oral bioavailability (plasma AUC 0-7 h by LCMS/MS); design: species or system male Sprague Dawley rats; conditions: for AUC(0-t): male, Sprague-Dawley [Crl:CD(SD)Br]
Description: In column 1, the oral bioavailability of preferred type 5 inhibitors, expressed in ng/mL.h, was determined as described below in “Other Tests, A-In Vivo Assays of Bioavailability of Human Type 5 17β-HSD Inhibitors”. Higher number are desirable. ND means that a determination was not done.
The measurements at various time intervals were for values greater than or equal to 1.0 ng/mL and less than or equal to 50 ng/mL.
Male Sprague-Dawley rats [Crl:CD(SD)Br] weighing 275-350 g were obtained from Charles-River Canada Inc. and housed 2 per cage during the acclimation period and individually during the study period. The animals were maintained under a regimen of 12 hours light: 12 hours dark (lights on at 08:00). Animals received certified Rodent feed (Lab Diet #5002, pellets) and tap water ad libitum. Rats were fasted (access to water only) starting on the evening prior to dosing.
Each compound to be tested was administered to three animals as a suspension in 0.4% methylcellulose by oral gavage at a dose of 0.5 mg/rat (1.0 ml/rat). Four to eight new compounds were tested each day and one group of animals received megestrol acetate (MGA) under the same conditions on each dosing day as a reference. […] Blood samples were immediately transferred into a refrigerated 0.75 ml Microtainer containing EDTA and kept in an ice-water bath until centrifugation at 3000 rpm for 10 minutes. Plasma separation was performed rapidly (less than 50 minutes) after blood collection. One aliquot of 0.25 ml of plasma was then transferred into a borosilicate tube (13×100) and was rapidly frozen on dry-ice. Plasma samples were kept at −80° C. until measurement of plasma concentration of the inhibitor(s) by LCMS/MS.
Aliquots of rat plasma (0.250 mL) were transferred to 13×100 mm borosilicate tubes. Water (1.0 mL) and internal standard solution (0.1 mL) were added to each sample and vortexed for 2 min. A mixture of N-butyl chloride and acetone (v:v, 7:3) (3 mL) was added to each sample and vortexed for 2 min. This step was repeated and the combined organic phases were evaporated to dryness under nitrogen in a Turbo Vap evaporator at 35° C. The residue was reconstituted with 1 mL of methanol and evaporated in a Turbo Vap evaporator at 35° C. The final extract was reconstituted into 0.1 mL of methanol/water (v:v, 75:25) and then transferred into a conical vial for injection into the mass spectrometer.
The assay procedure was performed by analyzing, in duplicate, rat plasma samples spiked at six different Type 5 inhibitor concentrations (1, 2, 5, 10, 20 and 50 ng/mL). The lower limit of quantitation (LOQ) was established at 1.0 ng/mL. Values lower than 1.0 ng/mL were expressed as below limit of quantification (BLQ). […]

estrogen receptor = target: T1, estrogen receptor (Rattus norvegicus, UniProt P06211); assay: Estrogen receptor (ER) assay: inhibition of [3H]E2 binding, uterine cytosol
T1 construct: from tissue; host or cells: uterine cytosol of gonadectomized female Sprague-Dawley rats
T1 sequence (P06211 1-600): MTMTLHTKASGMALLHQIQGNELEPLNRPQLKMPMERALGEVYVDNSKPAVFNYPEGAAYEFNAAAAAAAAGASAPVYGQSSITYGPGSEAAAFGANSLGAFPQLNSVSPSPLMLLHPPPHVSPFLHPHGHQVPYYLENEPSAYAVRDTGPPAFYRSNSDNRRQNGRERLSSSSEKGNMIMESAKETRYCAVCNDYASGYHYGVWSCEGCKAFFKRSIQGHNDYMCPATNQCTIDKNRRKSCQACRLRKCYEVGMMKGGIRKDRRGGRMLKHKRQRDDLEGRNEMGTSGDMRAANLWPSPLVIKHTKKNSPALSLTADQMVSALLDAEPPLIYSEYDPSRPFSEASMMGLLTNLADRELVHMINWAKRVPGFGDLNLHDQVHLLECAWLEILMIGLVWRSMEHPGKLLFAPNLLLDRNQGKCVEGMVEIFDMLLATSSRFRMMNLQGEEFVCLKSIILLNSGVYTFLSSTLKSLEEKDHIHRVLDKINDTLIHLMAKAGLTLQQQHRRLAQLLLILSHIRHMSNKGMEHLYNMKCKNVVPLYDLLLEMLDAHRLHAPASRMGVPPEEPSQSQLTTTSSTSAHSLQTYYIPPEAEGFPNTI
Description: Female Sprague-Dawley rats (Crl: CD(SD)Br) weighing 200-300 g were obtained from Charles-River Inc. (St-Constant, Québec, Canada). The rats were gonadectomized under general anesthesia (Isoflurane) and killed by cervical dislocation 24 hours later. The uteri were rapidly removed, dissected free from adhering tissue and frozen on dry-ice. Uteri were kept at −80° C. until assay. All subsequent steps were performed at 0-4° C. Uteri were homogenized in 10 vol (wt/vol) of buffer A (25 mM Tris-HCI, 1.5 mM EDTA disodium salt, 10 mM α-monothioglycerol, 10% glycerol, and 10 mM sodium molybdate, pH 7.4), using a Polytron PT-10 homogenizer (Brinkman Instruments, Canada) at a setting of 5 for three periods of 10 sec, with intervals of 10 sec for cooling. The homogenate was then centrifuged at 105,000×g for 60 min in a Beckman L5-65 ultracentrifuge (Fullerton, Calif.). The protein concentration of the cytosol fraction was measured according to the method of Bradford (Anal. Biochem. 72: 248-254, 1976), using bovine serum albumin as standard.
Estrogen binding was measured using the dextran-coated charcoal adsorption technique as described previously (Asselin et al., Endocrinology, 101: 666-671, 1977; Asselin and Labrie, J. Steroid Biochem., 9: 1079-1082, 1978). Briefly, [^3H]E2 solubilized in ethanol were diluted into buffer A. Aliquots of uterine cytosol preparation (0.1 ml) were incubated with 5 nM [^3H]E2 (˜200,000 cpm, 0.1 ml) in the presence or absence of the indicated concentrations of unlabeled compounds (0.1 ml, prepared in buffer A containing 10% ethanol) for 3 h at room temperature. Unbound steroids were then separated by incubation for 15 min at 0-4° C. with 0.3 ml 0.5% Norit-A and 0.05% Dextran T-70 in buffer B (1.5 mM EDTA disodium salt, 10 mM monothioglycerol, and 10 mM Tris-HCI, pH 7.4) and centrifuged at 3,000×g for 15 min. Aliquots of the supernatant (0.3 ml) were removed for radioactivity measurement.

[2] = 0.5 mg, Table 4′, oral, rat plasma

Row | Compound | % Inhibition Estrogen Receptor (estrogen receptor; E^−6) [%] | % Inhibition Estrogen Receptor (estrogen receptor; E^−8) [%] | AUC(0-t) [1, 2] [ng·h/mL] | % Inhibition Estrogen Receptor E^−6 (estrogen receptor; Table 4′, E^−6) [%] | % Inhibition Estrogen Receptor E^−8 (estrogen receptor; Table 4′, E^−8) [%] | further results
1 | CCC(=O)O[C@]1(C(C)=O)CCC2C3C=C(C)C4=CC(=O)C[C@H](C)[C@]4(C)C3CC[C@@]21C (stereo partly drawn) [CS-243] | 0 | 1 |  |  |  | AUC(0-t) ([1]; rat, plasma, po, 0.5 mg): 11 ± 2.5 ng·h/mL
2 | CCCC(=O)OC1(C(C)=O)CCC2C3C=C(C)C4=CC(=O)CC(C)C4(C)C3CCC21C (stereo not drawn) [CS-245] | 2 | 0 |  |  |  | AUC(0-t) ([1]; rat, plasma, po, 0.5 mg): 18 ± 5 ng·h/mL
3 | C[C@]12CCC3c4ccc(O)cc4CCC3C1CC[C@@]21CCCC(=O)O1 (stereo partly drawn) [EM-919, 1,3,5(10)-estratrien-3-ol-17(R)-spiro-2′(6′-oxo)tetrahydropyran] |  |  | 4.8 ± 0.8 |  |  | % Inhibition Estrogen Receptor *E^−5 (estrogen receptor; Table 4′, starred values, E^−5): 90* %; % Inhibition Estrogen Receptor *E^−7 (estrogen receptor; Table 4′, starred values, E^−7): 07* %
4 | COC(=O)CCCC(=O)O[C@]1(C(C)=O)CC[C@H]2[C@@H]3C=C(C)C4=CC(=O)CC[C@]4(C)[C@H]3CC[C@@]21C [EM-1007, 6-Methyl-4,6-pregnadien-17α-ol-3,20-dione 4′-Carbomethoxybutyrate] | 0 | 0 |  |  |  | Oral Bioavailability AUC 0-7h ([1]; AUC 0-7h): 16.4 ng·h/mL
5 | CCC[C@@H]1CC2C3C=CC4=CC(=O)CC[C@]4(C)C3CC[C@]2(C)C1=O (stereo partly drawn) [EM-1097] |  |  |  |  |  | AUC(0-t) ([1]; rat, plasma, po, 0.5 mg/rat): 122 ± 5.7 ng·h/mL; % Inhibition Estrogen Receptor E^−6 (estrogen receptor; E^−6): 1%; % Inhibition Estrogen Receptor E^−8 (estrogen receptor; E^−8): 0%
6 | C[C@]12CCC3c4cc([N+](=O)[O-])c(O)cc4CCC3C1CC[C@@]21CCCC(=O)O1 (stereo partly drawn) [EM-1124, 2-Nitro-1,3,5(10)-estraetriene-3-ol-17(R)-spiro-2′-(6′-oxo)tetrahydropyran] |  |  |  | 0 | 0 | AUC(0-t) ([1]; rat, plasma, po, 0.5 mg, Table 4′, cell marked (8 h)): 5.1 ± 1 ng·h/mL
7 | CC1(C)CCC2(CCC3C4CCc5cc(O)c([N+](=O)[O-])cc5C4CCC32C)OC1=O (stereo not drawn) [EM-1125-CS] |  |  | 95 ± 6.5 | 2 | 2 | 
8 | CC1CCC2(CCC3C4CCc5cc(O)c([N+](=O)[O-])cc5C4CCC32C)OC1=O [EM-1131, 2-Nitro-1,3,5(10)-estratrien-3-ol-17(R)-spiro-2′-(5′-methyl-6′-oxo)tetrahydropyran] |  |  | 124 ± 27 | 3 | 5 | 
9 | CC1(C)CC[C@@]2(CCC3C4CCc5cc(F)ccc5C4CC[C@@]32C)OC1=O (stereo partly drawn) [EM-1157-CS] |  |  | 40 ± 7 | 0 | 0 | 
10 | CC(=O)O[C@]1(C(=O)N(C)C)CCC2C3C=C(C)C4=CC(=O)CC[C@]4(C)C3CC[C@@]21C (stereo partly drawn) [EM-1159] | 1 | 0 |  |  |  | AUC(0-t) ([1]; rat, plasma, po, 0.5 mg): 452 ± 170 ng·h/mL
11 | CCCCN(C)C(=O)[C@@]1(OC(C)=O)CCC2C3C=C(C)C4=CC(=O)CC[C@]4(C)C3CC[C@@]21C (stereo partly drawn) [EM-1165] | 0 | 0 |  |  |  | AUC(0-t) ([1]; rat, plasma, po, 0.5 mg): 24 ± 3.6 ng·h/mL
12 | CC(=O)[C@@]1(OC(=O)CCCCF)CCC2C3C=C(C)C4=CC(=O)CC[C@]4(C)C3CC[C@@]21C (stereo partly drawn) [EM-1195-CS] | 0 | 0 |  |  |  | AUC(0-t) ([1]; rat, plasma, po, 0.5 mg): 31 ± 5.5 ng·h/mL
13 | CC(C)C[C@@H]1CC2C3C=CC4=CC(=O)CC[C@]4(C)C3CC[C@]2(C)C1=O (stereo partly drawn) [EM-1273-CS] |  |  |  |  |  | AUC(0-t) ([1]; rat, plasma, po, 0.5 mg/rat): 85 ± 26 ng·h/mL; % Inhibition Estrogen Receptor E^−6 (estrogen receptor; E^−6): 0%; % Inhibition Estrogen Receptor E^−8 (estrogen receptor; E^−8): 0%
14 | COc1ccc(CC(=O)O[C@]2(C(C)=O)CCC3C4C=C(C)C5=CC(=O)C=C[C@]5(C)C4CC[C@@]32C)cc1 (stereo partly drawn) [EM-1291] | 0 | 0 |  |  |  | AUC(0-t) ([1]; rat, plasma, po, 0.5 mg): 94 ± 23 ng·h/mL
15 | COCCOc1cc2c(cc1Cl)C1CCC3(C)C(CCC34CCC(C)(C)C(=O)O4)C1CC2 (stereo not drawn) [EM-1371-CS] |  |  | 64 ± 21 | 1 | 2 | 
16 | COc1c(Br)cc2c(c1Br)CCC1C2CCC2(C)C1CCC21CCC(C)(C)C(=O)O1 (stereo not drawn) [EM-1385-CS] |  |  | 301 ± 36 | 4 | 2 | 
17 | COc1ccc2c(c1)C(=O)CC1C3CCC4(CCC(C)(C)C(=O)O4)C3(C)CCC21O (stereo not drawn) [EM-1386] |  |  | 5600 ± 789 | 0 | 3 | 
18 | CN(C)CCOc1ccc2c(c1)CCC1C2CCC2(C)C1CCC21CCC(C)(C)C(=O)O1 (stereo not drawn) [EM-1389-CS] |  |  | 169 ± 2 | 0 | 0 | 
19 | CC1(C)CCC2(CCC3C4CCc5cc(OCCN6CCCCC6)ccc5C4CCC32C)OC1=O [EM-1390-CS, 3-(N-piperidyl-ethyl)-1,3,5(10)-estratrien-17(R)-spiro-2′-(5′,5′-dimethyl-6′-oxo)-tetrahydropyran] |  |  | 401 ± 5 | 0 | 0 | 
20 | CC1(C)CCC2(CCC3C4CCc5c(cc(Cl)c(O)c5Cl)C4CCC32C)OC1=O (stereo not drawn) [EM-1391-CS] |  |  | 28 ± 3.4 | 0 | 0 | 
21 | CC1(C)CCC2(CCC3C4CCc5c(cc(Cl)c(OS(C)(=O)=O)c5Cl)C4CCC32C)OC1=O (stereo not drawn) [EM-1392-CS] |  |  | 305 ± 49 | 0 | 0 | 
22 | COc1ccc2c(c1)C(=O)CC1C2CC[C@@]2(C)C1CC[C@@]21CCC(C)(C)C(=O)O1 (stereo partly drawn) [EM-1394] |  |  | 1760 ± 69 | 8 | 4 | 
23 | COCCOc1cc2c(cc1C#N)C1CC[C@@]3(C)C(CC[C@@]34CCC(C)(C)C(=O)O4)C1CC2 (stereo partly drawn) [EM-1396] |  |  | 196 ± 53 | 2 | 3 | 
